# Measured values: patent US20050004029A1, “Methods and compositions for treating vascular leak using hepatocyte growth factor” (priority 2001, published 2005)
# Where “and” joins values, the source holds several entries; their conditions need not be identical. Identical values can stand only once.
# Tested on: Human pulmonary artery endothelial cells
# Experiment: Transendothelial electrical resistance (TER) of human pulmonary artery endothelial cell monolayers
# Assay type: cell-based
# Procedure: Bovine pulmonary artery endothelial cells were purchased from the American Type Culture Collection (ATCC®, Rockville, Md.) and utilized at passage 19-24. Cells were maintained in Medium 199 (Life Technologies, Rockville, Md.) supplemented with 20% (v/v) colostrum-free bovine serum (CFBS) (Irvine Scientific, Santa Ana, Calif.), 15 μg/ml endothelial cell growth supplement (Upstate Biotechnology, Lake Placid, N.Y.), 1% antibiotic and antimycotic, and 0.1 mM non-essential amino acids (Life Technologies). Human pulmonary artery endothelial cells were purchased from Clonetics (Walkersville, Md.), cultured in EBM-2 complete medium (Clonetics) and utilized at passage 5-10. Human alveolar epithelial cells (A549) were purchased from ATCC® and cultured in the same medium as the bovine endothelial cells, except that the endothelial cell growth supplement was omitted. All cells were maintained at 37° C. in a humidified atmosphere of 5% CO2 and 95% air. Both endothelial cell types grew to contact-inhibited monolayers with the typical cobblestone morphology (Garcia, J. G. N. et al. (1995) J. Cell. Physiol. 163:510-522; Liu, F. et al. (2001) Am. J. Respir. Cell. Mol. Biol. 24:711-719).
# Electrical resistance of EC monolayers was measured using electrical cell impedance sensor system (Applied Biophysics Inc., Troy, N.Y.) as described in Garcia, J. G. N. et al. (2000) J. Appl. Physiol. 89:2333-2343. Cells grown on gold microelectrodes (10^−3 cm^2) in polycarbonate wells act as insulating particles, and the resistance across the monolayers (transendothelial electrical resistance, or TER) is measured in real time. As cells adhere on the microelectrode and intercellular cell contacts are formed or in response to agents which increase junctional integrity, the TER increases (Garcia, J. G. N. et al. (2001) J. Clin. Invest. 108:689-711). In contrast, cell retraction, rounding, or loss of adhesion is reflected by decreases in TER (Garcia, J. G. N. et al. (2000) J. Appl. Physiol. 89:2333-2343). These measurements provide a highly sensitive biophysical assay that indicates the state of cell shape, focal adhesion, and endothelial barrier function (Giaever, I. and Keese, C. R. (1993) Nature 366:591-592; Tiruppathi, C. et al. (1992) Proc. Natl. Acad. Sci. USA 89:7919-7923). All electrical resistance data are presented as normalized values. Briefly, current was applied across the electrodes by a 4000 Hz AC voltage source with an amplitude of 1 V in series with a 1 MΩ resistance to approximate a constant current source (−1 μA). The small gold electrode and the larger counter electrode (1 cm^2) were connected to a phase-sensitive lock-in amplifier (5301A; EG&G Instruments Corp, Princeton, N.J.) with a built in differential preamplifier (5316A; EG&G Instruments Corp.). The in-phase and out-of-phase voltages between the electrodes were monitored in real time with the lock-in amplifier and converted to scalar measurements of transendothelial impedance, of which resistance was the primary focus. Transendothelial electrical resistance was monitored for 30 min to establish a baseline resistance (Ro) which, for human lung endothelium, was typically between 8 to 12×10^3 Ω (wells with R0<7×10^3 Ω or R0 >15×10^3 Ω were rejected). For some experiments, total TER was vectorially resolved into components reflecting resistance to current flow beneath the cell layer (α) and resistance to current flow between adjacent cells (Rb) as described in Garcia et al. (2000) supra utilizing the method of Giaiver and Keese which models the endothelial monolayer mathematically (Giaever, I. and Keese, C. R. (1993) Nature 366:591-592). Thus, changes in α reflect alterations in the net state of cell-matrix adhesion, whereas changes in Rb reflect alterations in the integrity of cell-cell adhesion. TER values from each microelectrode were pooled at discrete time points and plotted versus time as the mean±standard error of the mean (Garcia et al. (2000) supra). […]
substance,measurement,setting,value
"HGF: heparin-binding glycoprotein, multifunctional cytokine, ligand of c-Met; purchased from R&D Systems",increase in TER (barrier enhancement),"HGF 100 ng/ml, at peak",~50% and > 50%
same,direct effect on TER,"HGF 2-100 ng/ml, NK2 1-100 ng/ml",increased TER in a dose-dependent manner
same,time at which elevation in TER is clearly evident,HGF 2 to 100 ng/ml,1 to 2 min
same,further increase in TER above 100 ng/ml,HGF >100 ng/ml,No further significant increases in TER
same,time of peak TER increase,after exposure to 100 ng/ml HGF,15 to 20 min
same,TER response to re-stimulation with HGF (10 ng/ml) at 2 hr,pretreatment with HGF at 10 and 100 ng/mL,significantly reduced the subsequent HGF responses
same,TER response to re-stimulation with HGF (10 ng/ml) at 2 hr,prior HGF stimulation at 1 ng/ml,not altered
same,paracellular junction resistance (Rb),vectorial partitioning of TER after HGF treatment,sharp increases
